# Source: PMC3723128 (Journal of medicinal chemistry, 2013)
# Columns and labels:
# Type in all cases: biochemical
# maDHFR = target: T1, maDHFR (Mycobacterium avium, UniProt O30463); assay: Inhibition of maDHFR
# T1 sequence (O30463 1-181): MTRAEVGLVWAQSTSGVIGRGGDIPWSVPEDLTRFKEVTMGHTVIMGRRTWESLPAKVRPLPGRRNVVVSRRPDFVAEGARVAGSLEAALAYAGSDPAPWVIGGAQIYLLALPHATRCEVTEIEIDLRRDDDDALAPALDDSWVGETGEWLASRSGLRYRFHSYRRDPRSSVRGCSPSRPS
# recombinant pjDHFR = recombinant pjDHFR (Pneumocystis jirovecii, UniProt Q9UUP5); assay: Inhibition of recombinant pjDHFR
# recombinant hDHFR = target: T2, recombinant hDHFR (Homo sapiens, UniProt P00374); assay: Inhibition of recombinant hDHFR; settings: compared to unsubstituted phenyl compound 4
# T2 sequence (P00374 1-187): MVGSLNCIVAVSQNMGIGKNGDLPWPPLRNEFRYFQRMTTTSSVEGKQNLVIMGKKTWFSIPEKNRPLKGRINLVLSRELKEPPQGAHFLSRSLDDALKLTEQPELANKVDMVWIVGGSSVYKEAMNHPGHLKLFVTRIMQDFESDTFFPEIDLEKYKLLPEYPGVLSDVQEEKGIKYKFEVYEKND
smiles,measurement,setting,value
"COc1cc(N(C)c2cnc3nc(N)nc(N)c3c2)cc(OC)c1OC [Compound 20, N^6-methyl-N^6-(3,4,5-trimethoxyphenyl)pyrido[2,3-d]pyrimidine-2,4,6-triamine]",inhibitory potency against maDHFR,maDHFR,subnanomolar
"CN(c1cc(F)c(F)c(F)c1)c1cnc2nc(N)nc(N)c2c1 [Compound 26, N^6-methyl-N^6-(3,4,5-trifluorophenyl)pyrido[2,3-d]pyrimidine-2,4,6-triamine]",fold more selective for pjDHFR than PTX,recombinant pjDHFR,18 fold
same,fold difference in potency for pjDHFR made by the N9-Me moiety,"recombinant pjDHFR; pairs 16/4 and 26/15, from IC50 values in Table 5",~200 fold
"Nc1nc(N)c2cc(Nc3cccc4ccccc34)cnc2n1 [Compound 13, N^6-1-naphthylpyrido[2,3-d]pyrimidine-2,4,6-triamine]",fold loss in potency against hDHFR,recombinant hDHFR,10 fold
"COc1cc(Nc2cnc3nc(N)nc(N)c3c2)cc(OC)c1OC [Compound 8, N^6-(3,4,5-trimethoxyphenyl)pyrido[2,3-d]pyrimidine-2,4,6-triamine]",h/pj selectivity ratio,recombinant pjDHFR; IC50 hDHFR / IC50 pjDHFR,12.7
"Nc1nc(N)c2cc(Nc3ccc4ccccc4c3)cnc2n1 [Compound 11, N^6-2-naphthylpyrido[2,3-d]pyrimidine-2,4,6-triamine]",fold loss in potency against hDHFR,recombinant hDHFR,10 fold
"CN(c1cnc2nc(N)nc(N)c2c1)c1cccc2ccccc12 [Compound 24, N^6-methyl-N^6-1-naphthylpyrido[2,3-d]pyrimidine-2,4,6-triamine]",rl/ma selectivity ratio,maDHFR; IC50 rlDHFR / IC50 maDHFR,10.3
"CN(c1ccccc1)c1cnc2nc(N)nc(N)c2c1 [Compound 16, N^6-methyl-N^6-phenylpyrido[2,3-d]pyrimidine-2,4,6-triamine]",fold more potent than TMP against pjDHFR,recombinant pjDHFR,about 50 fold
